# Patent publication US7569550B2, “14 and 15 membered ring compounds” (Glaxo Group Limited, priority 2003, dated 2009)
# Counter-ions that a name gives are not always drawn.
# Tests used:
# Experiment in all cases: MIC, standard broth dilution method in microtitre
# Assay type in all cases: cell-based
# [1] = test system: S. aureus Smith ATCC 13709; conditions: Staphylococcus aureus, ATCC13709
# Description: (§1) Using a standard broth dilution method in microtitre, compounds were tested for antibacterial activity. The compounds in the above examples gave minimum inhibitory concentrations (MICs) less than 1 microgram per millilitre against erythromycin-sensitive and erythromycin-resistant strains of Streptococcus pneumoniae and Streptococcus pyogenes.
# (§2) In addition, the MIC (μg/ml) of test compounds against various organisms was determined including:
# (§3) S. aureus Smith ATCC 13709, S. pneumoniae SP030, S. pyogenes 3565, E. faecalis ATCC 29212, H. influenzae ATCC 49247, M. catarrhalis ATCC 23246.
# S. pyogenes 3565 = conditions: Streptococcus pyogenes
# Description: as §1, §2, §3
# S. pneumoniae SP030 = conditions: Streptococcus pneumoniae
# Description: as §1, §2, §3
# H. influenzae ATCC 49247 = conditions: Haemophilus influenzae, ATCC49247; H. influenzae ATCC 49247; read-out: MIC
# Description: as §1, §2, §3
# [2] = test system: M. catarrhalis ATCC 23246; conditions: Moraxella catarrhalis, ATCC23246
# Description: as §1, §2, §3
# E. faecalis ATCC 29212 = conditions: Enterococcus faecalis, ATCC29212
# Description: as §1, §2, §3
# [3] = test system: erythromycin resistant strains of Streptococcus pyogenes
# Description: as §1
# [4] = test system: erythromycin resistant strains of Streptococcus pneumoniae
# Description: as §1
Compound,MIC [1],MIC (S. pyogenes 3565),MIC (S. pneumoniae SP030),MIC (H. influenzae ATCC 49247),MIC [2],MIC (E. faecalis ATCC 29212),MIC [3],MIC [4]
"CC[C@@H]1OC(=O)[C@H](C)[C@H](O[C@@H]2C[C@](C)(OC)[C@H](OCCCN(C)CCNc3cc4c(cc3F)c(=O)c(C(=O)O)cn4C3CC3)[C@H](C)O2)[C@@H](C)[C@H](O[C@H]2O[C@@H](C)C[C@@H](N(C)C)[C@H]2O)[C@](C)(OC)C[C@H](C)C(=O)[C@H](C)[C@H]2OC(=O)O[C@@]12C [Example 2, 4″-O-(3-{[2-(3-Carboxy-1-cyclopropyl-6-fluoro-4-oxo-1,4-dihydro-quinolin-7-ylamino)ethyl]-methylamino}-propyl)-6-O-methyl-erythromycin A 11,12-carbonate]",≤ 1 µg/mL,≤ 1 µg/mL,≤ 1 µg/mL,≤ 4 µg/mL,≤ 4 µg/mL,≤ 1 µg/mL,≤ 1 µg/mL,≤ 1 µg/mL
"CC[C@H]1OC(=O)[C@H](C)[C@@H](O[C@H]2C[C@@](C)(OC)[C@@H](OCCCN(C)CCCc3cnc4c(c3)c(=O)c(C(=O)O)cn4CC)[C@H](C)O2)[C@H](C)[C@@H](O[C@@H]2O[C@H](C)C[C@H](N(C)C)[C@H]2O)[C@](C)(OC)C[C@@H](C)C(=O)[C@@H](C)[C@H]2NC(=O)O[C@@]21C [Example 30, 4″-O-{3-[[3-(3-Carboxy-1-ethyl-4-oxo-1,4-dihydro-6-[1,8]naphthryidinyl)-propyl]-methylamino]-propyl}-6-O-methyl-11-desoxy-11-(R)-amino-erythromycin A 11,12-carbamate]",≤ 1 µg/mL,≤ 1 µg/mL,≤ 1 µg/mL,≤ 4 µg/mL,≤ 4 µg/mL,≤ 1 µg/mL,≤ 1 µg/mL,≤ 1 µg/mL
"CC[C@H]1OC(=O)[C@H](C)[C@@H](O[C@H]2C[C@@](C)(OC)[C@@H](OCCCNCCNc3nc4c(cc3F)c(=O)c(C(=O)O)cn4CC)[C@H](C)O2)[C@H](C)[C@@H](O[C@@H]2O[C@H](C)CC(N(C)C)[C@H]2O)[C@](C)(OC)C[C@@H](C)C(=O)[C@@H](C)[C@H]2NC(=O)O[C@@]21C (stereo partly drawn) [Example 21, 4″-O-{3-[2-(3-Carboxy-1-ethyl-6-fluoro-4-oxo-1,4-dihydro-[1,8]naphthyridin-7-ylamino)-ethylamino]-propyl}-6-O-methyl-11-desoxy-11-(R)-amino-erythromycin A 11,12-carbamate formate]",≤ 1 µg/mL,≤ 1 µg/mL,≤ 1 µg/mL,≤ 4 µg/mL,≤ 4 µg/mL,≤ 1 µg/mL,≤ 1 µg/mL,≤ 1 µg/mL
"CC[C@H]1OC(=O)[C@H](C)[C@@H](O[C@H]2C[C@@](C)(OC)[C@@H](OCCCNCCCc3ccc4c(c3C)c(=O)c(C(=O)O)cn4CC)[C@H](C)O2)[C@H](C)[C@@H](O[C@@H]2O[C@H](C)CC(N(C)C)[C@H]2O)[C@](C)(OC)C[C@@H](C)C(=O)[C@@H](C)[C@H]2NC(=O)O[C@@]21C (stereo partly drawn) [Example 23, 4″-O-{3-[3-(3-Carboxy-1-ethyl-5-methyl-4-oxo-1,4-dihydro-quinolin-6-yl)-propylamino]-propyl}-6-O-methyl-11-desoxy-11-(R)-amino-erythromycin A 11,12-carbamate formate]",≤ 1 µg/mL,≤ 1 µg/mL,≤ 1 µg/mL,≤ 4 µg/mL,≤ 4 µg/mL,≤ 1 µg/mL,≤ 1 µg/mL,≤ 1 µg/mL

# Other lines, results leading:
MIC [1],MIC (S. pyogenes 3565),MIC (S. pneumoniae SP030),MIC (H. influenzae ATCC 49247),MIC [2],MIC (E. faecalis ATCC 29212),MIC [3],MIC [4],Compound
≤ 1 µg/mL,≤ 1 µg/mL,≤ 1 µg/mL,≤ 4 µg/mL,≤ 4 µg/mL,≤ 1 µg/mL,≤ 1 µg/mL,≤ 1 µg/mL,"CC[C@@H]1OC(=O)[C@H](C)[C@H](O[C@@H]2C[C@](C)(OC)[C@H](OCCCNCCOc3cc4c5c(c3)c(=O)c(C(=O)O)cn5CCC4)[C@H](C)O2)[C@@H](C)[C@H](O[C@H]2O[C@@H](C)C[C@@H](N(C)C)[C@H]2O)[C@](C)(OC)C[C@H](C)C(=O)[C@H](C)[C@H]2OC(=O)O[C@@]12C [Example 6, 4″-O-{3-[2-(2-Carboxy-1-oxo-6,7-dihydro-1H,5H-pyrido[3,2,1-ij]quinoline-9-yloxy)-ethylamino]-propyl}-6-O-methyl-erythromycin A 11,12-carbonate bisformate]"
≤ 1 µg/mL,≤ 1 µg/mL,≤ 1 µg/mL,≤ 4 µg/mL,≤ 4 µg/mL,≤ 1 µg/mL,≤ 1 µg/mL,≤ 1 µg/mL,"CC[C@@H]1OC(=O)[C@H](C)[C@H](O[C@@H]2C[C@](C)(OC)[C@H](OCCCN(C)CCCc3ccc4c(c3)c(=O)c(C(=O)O)cn4CC)[C@H](C)O2)[C@@H](C)[C@H](O[C@H]2O[C@@H](C)C[C@@H](N(C)C)[C@H]2O)[C@](C)(OC)C[C@H](C)C(=O)[C@H](C)[C@H]2OC(=O)O[C@@]12C [Example 13, 4″-O-(3-{[3-(3-Carboxy-1-ethyl-4-oxo-1,4-dihydro-quinolin-6-yl)propyl]-methylamino}-propyl)-6-O-methyl-erythromycin A 11,12-carbonate formate]"
≤ 1 µg/mL,≤ 1 µg/mL,≤ 1 µg/mL,≤ 4 µg/mL,≤ 4 µg/mL,≤ 1 µg/mL,≤ 1 µg/mL,≤ 1 µg/mL,"CC[C@@H]1OC(=O)[C@H](C)[C@H](O[C@@H]2C[C@](C)(OC)[C@H](OCCCN(C)CCCc3ccc4c(c3)c(=O)c(C(=O)O)cn4CC)[C@H](C)O2)[C@@H](C)[C@H](O[C@H]2O[C@@H](C)C[C@@H](N(C)C)[C@H]2O)[C@](C)(OC)C[C@H](C)C(=O)[C@H](C)[C@H]2NC(=O)O[C@@]12C [Example 29, 4″-O-{3-[[3-(3-Carboxy-1-ethyl-4-oxo-1,4-dihydro-quinolin-6-yl)-propyl]-methylamino]-propyl}-6-O-methyl-11-desoxy-11-(R)-amino-erythromycin A 11,12-carbamate formate]"
